Experimental data as given in the NIST ThermoML archive (doi:10.1007/s10765-008-0410-4).
± gives the expanded uncertainty stated by the source.

Assay: xn = mol fraction of the nth substance listed
Conditions: Liquid, Vibrating tube method

`CCCCn1cc[n+](C)c1.F[B-](F)(F)F` [1-butyl-3-methylimidazolium tetrafluoroborate] + CCO showed a mass density (298.15 K, 120 kPa, x1 = 0.9152) of 1199.7 ± 1.1 kg/m3, a mass density (298.15 K, 180 kPa, x1 = 0.7452) of 1171.71 ± 0.71 kg/m3 and a mass density (298.15 K, 210 kPa, x1 = 0.5384) of 1124.67 ± 0.37 kg/m3. The mass density (298.15 K, 280 kPa, x1 = 1) was 1211.19 ± 1.3 kg/m3, the mass density (298.15 K, 340 kPa, x1 = 0.3147) was 1044.49 ± 0.17 kg/m3 and the mass density (298.15 K, 390 kPa, x1 = 0.0701) was 875.91 ± 0.14 kg/m3. For the same compound, the mass density (298.15 K, 4960 kPa, x1 = 0.7452) was 1174.16 ± 0.75 kg/m3, the mass density (298.15 K, 5040 kPa, x1 = 0.5384) was 1127.45 ± 0.4 kg/m3 and the mass density (298.15 K, 5140 kPa, x1 = 0.9152) was 1202.06 ± 1.1 kg/m3. The mass density (298.15 K, 5500 kPa, x1 = 0.0701) was 880.04 ± 0.16 kg/m3, the mass density (298.15 K, 5630 kPa, x1 = 0.3147) was 1048.05 ± 0.18 kg/m3 and the mass density (298.15 K, 5640 kPa, x1 = 1) was 1213.63 ± 1.4 kg/m3. The mass density (298.15 K, 10030 kPa, x1 = 0.9152) was 1204.31 ± 1.2 kg/m3, the mass density (298.15 K, 10060 kPa, x1 = 0.7452) was 1176.71 ± 0.78 kg/m3 and the mass density (298.15 K, 10260 kPa, x1 = 0.5384) was 1130.36 ± 0.43 kg/m3. It also gave a mass density (298.15 K, 10620 kPa, x1 = 1) of 1215.85 ± 1.4 kg/m3, a mass density (298.15 K, 10910 kPa, x1 = 0.3147) of 1051.47 ± 0.19 kg/m3 and a mass density (298.15 K, 11370 kPa, x1 = 0.0701) of 884.58 ± 0.17 kg/m3. The mass density (298.15 K, 15130 kPa, x1 = 0.0701) was 887.37 ± 0.18 kg/m3, the mass density (298.15 K, 15210 kPa, x1 = 0.7452) was 1179.21 ± 0.82 kg/m3 and the mass density (298.15 K, 15280 kPa, x1 = 0.3147) was 1054.2 ± 0.19 kg/m3. For the same compound, the mass density (298.15 K, 15320 kPa, x1 = 0.5384) was 1133.1 ± 0.46 kg/m3, the mass density (298.15 K, 15340 kPa, x1 = 1) was 1217.77 ± 1.4 kg/m3 and the mass density (298.15 K, 15620 kPa, x1 = 0.9152) was 1206.82 ± 1.2 kg/m3. It also gave a mass density (298.15 K, 20090 kPa, x1 = 0.5384) of 1135.59 ± 0.49 kg/m3, a mass density (298.15 K, 20360 kPa, x1 = 0.7452) of 1181.64 ± 0.87 kg/m3 and a mass density (298.15 K, 20480 kPa, x1 = 0.9152) of 1208.95 ± 1.3 kg/m3. The mass density (298.15 K, 20540 kPa, x1 = 0.3147) was 1057.36 ± 0.21 kg/m3, the mass density (298.15 K, 20640 kPa, x1 = 1) was 1220.29 ± 1.5 kg/m3 and the mass density (298.15 K, 21070 kPa, x1 = 0.0701) was 891.6 ± 0.19 kg/m3. For the same compound, the mass density (298.15 K, 25270 kPa, x1 = 1) was 1222.18 ± 1.5 kg/m3, the mass density (298.15 K, 25410 kPa, x1 = 0.7452) was 1183.95 ± 0.91 kg/m3 and the mass density (298.15 K, 25470 kPa, x1 = 0.3147) was 1060.21 ± 0.22 kg/m3. The mass density (298.15 K, 25570 kPa, x1 = 0.0701) was 894.66 ± 0.2 kg/m3, the mass density (298.15 K, 26070 kPa, x1 = 0.5384) was 1138.61 ± 0.53 kg/m3 and the mass density (298.15 K, 26140 kPa, x1 = 0.9152) was 1211.36 ± 1.3 kg/m3. For the same compound, the mass density (298.15 K, 29870 kPa, x1 = 0.9152) was 1212.91 ± 1.4 kg/m3, the mass density (298.15 K, 30050 kPa, x1 = 1) was 1223.93 ± 1.6 kg/m3 and the mass density (298.15 K, 30070 kPa, x1 = 0.5384) was 1140.56 ± 0.55 kg/m3. The mass density (298.15 K, 30090 kPa, x1 = 0.7452) was 1186.03 ± 0.95 kg/m3, the mass density (298.15 K, 30620 kPa, x1 = 0.0701) was 897.94 ± 0.22 kg/m3 and the mass density (298.15 K, 31120 kPa, x1 = 0.3147) was 1063.34 ± 0.23 kg/m3. It also gave a mass density (298.15 K, 35410 kPa, x1 = 0.5384) of 1143.07 ± 0.59 kg/m3, a mass density (298.15 K, 35410 kPa, x1 = 1) of 1226.07 ± 1.6 kg/m3 and a mass density (298.15 K, 35480 kPa, x1 = 0.7452) of 1188.36 ± 0.99 kg/m3. For the same compound, the mass density (298.15 K, 35740 kPa, x1 = 0.9152) was 1215.3 ± 1.4 kg/m3, the mass density (298.15 K, 35800 kPa, x1 = 0.3147) was 1065.82 ± 0.24 kg/m3 and the mass density (298.15 K, 35860 kPa, x1 = 0.0701) was 901.17 ± 0.23 kg/m3. It also gave a mass density (298.15 K, 39340 kPa, x1 = 0.0701) of 903.23 ± 0.23 kg/m3, a mass density (298.15 K, 39610 kPa, x1 = 1) of 1227.81 ± 1.7 kg/m3 and a mass density (298.15 K, 39770 kPa, x1 = 0.3147) of 1067.84 ± 0.26 kg/m3. It also gave a mass density (298.15 K, 39920 kPa, x1 = 0.7452) of 1190.22 ± 1 kg/m3, a mass density (298.15 K, 39980 kPa, x1 = 0.5384) of 1145.14 ± 0.62 kg/m3 and a mass density (298.15 K, 39980 kPa, x1 = 0.9152) of 1216.97 ± 1.4 kg/m3. For the same compound, the mass density (323.15 K, 290 kPa, x1 = 0.0701) was 856.52 ± 0.15 kg/m3, the mass density (323.15 K, 340 kPa, x1 = 0.3147) was 1026.83 ± 0.16 kg/m3 and the mass density (323.15 K, 420 kPa, x1 = 0.7452) was 1153.47 ± 0.69 kg/m3. For the same compound, the mass density (323.15 K, 510 kPa, x1 = 0.9152) was 1181.35 ± 1.1 kg/m3, the mass density (323.15 K, 730 kPa, x1 = 1) was 1192.89 ± 1.3 kg/m3 and the mass density (323.15 K, 850 kPa, x1 = 0.5384) was 1106.94 ± 0.36 kg/m3. The mass density (323.15 K, 4870 kPa, x1 = 0.9152) was 1183.6 ± 1.1 kg/m3, the mass density (323.15 K, 4890 kPa, x1 = 0.5384) was 1109.43 ± 0.38 kg/m3 and the mass density (323.15 K, 5010 kPa, x1 = 0.3147) was 1030.15 ± 0.17 kg/m3. It also gave a mass density (323.15 K, 5060 kPa, x1 = 0.7452) of 1156.05 ± 0.72 kg/m3, a mass density (323.15 K, 5410 kPa, x1 = 0.0701) of 861.09 ± 0.16 kg/m3 and a mass density (323.15 K, 5640 kPa, x1 = 1) of 1195.3 ± 1.3 kg/m3. The mass density (323.15 K, 9860 kPa, x1 = 0.5384) was 1112.4 ± 0.41 kg/m3.
